The values that follow come from paper PMC5085792, “Seeking for Non-Zinc-Binding MMP-2 Inhibitors: Synthesis, Biological Evaluation and Molecular Modelling Studies” (International Journal of Molecular Sciences, 2016).

The structures appear in SMILES notation.

Series [1] has as its target T1, catalytic domain of MMP-2 (Homo sapiens, UniProt P08253).
T1 construct: The catalytic domains of MMP-2, MMP-8 and MMP-13 were purchased from Enzo Life Sciences; purchased Enzo Life Sciences (Lörrach, Germany)
In words: MMP-2 enzyme inhibition assay (fluorogenic substrate). In kind it is biochemical. The following applies: for IC50: mean ± SEM of at least three independent measurements in triplicate. On the procedure:
(§1) The synthesized compounds were submitted to MMP inhibition assays. A dose/response preliminary screening was performed at 100 µM by registering the residual enzyme activity on MMP-2, MMP-8 and MMP-13 (Figure 4). Compounds showing a percentage of inhibition higher than 50% were submitted to IC50 calculation.
(§2) The catalytic domains of MMP-2, MMP-8 and MMP-13 were purchased from Enzo Life Sciences (Lörrach, Germany). The assays were performed in triplicate in 96-well white microtiter plates (Corning, NBS; Corning, NY, USA). For assay measurements, inhibitor stock solutions (DMSO, 10 mM) were diluted to six different concentrations (1 nM–100 µM) in fluorometric assay buffer (50 mM Tris·HCl pH 7.5, 200 mM NaCl, 1 mM CaCl2, 1 µM ZnCl2, 0.05% Brij-35 and 1% DMSO). Enzyme and inhibitor solutions were incubated in the assay buffer for 15 min at room temperature before the addition of the fluorogenic substrate solution (OmniMMP® = Mca-Pro-Leu-Gly-Leu-Dpa-Ala-Arg-NH2, Enzo Life Sciences, 2.5 µM final concentration or OmniMMP®RED = TQ3-GABA-Pro-Cha-Abu-Smc-His-Ala-Dab(6’-TAMRA)-Ala-Lys-NH2, (TAMRA: tetramethylrhodamine) Enzo Life Sciences, 1 µM final concentration). After further incubation for 2–4 h at 37 °C, fluorescence was measured (λex = 340 nm, λem = 405 nm or λex = 545 nm, λem = 572 nm) using a Perkin-Elmer Victor V3 plate reader (Waltham, MA, USA). Control wells lacked inhibitor. The MMP inhibition activity was expressed in relative fluorescence units (RFU). Percent inhibition was calculated from control reactions without inhibitor; IC50 values were determined using GraphPad Prism version 5.0f and are expressed as the mean ± SEM of at least three independent measurements in triplicate.

The target of series [2] is T2, catalytic domain of MMP-8 (Homo sapiens, UniProt P22894).
T2 construct: The catalytic domains of MMP-2, MMP-8 and MMP-13 were purchased from Enzo Life Sciences; purchased Enzo Life Sciences (Lörrach, Germany)
T2 sequence (P22894 100-262 limits assumed): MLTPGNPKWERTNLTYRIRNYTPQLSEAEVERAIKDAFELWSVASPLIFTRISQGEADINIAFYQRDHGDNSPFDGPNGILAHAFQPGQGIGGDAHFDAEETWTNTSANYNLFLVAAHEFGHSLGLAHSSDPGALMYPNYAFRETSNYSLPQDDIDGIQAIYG
The experiment in a line: MMP-8 enzyme inhibition assay (fluorogenic substrate). The note with it: mean ± SEM of at least three independent measurements in triplicate. It counts as biochemical. On the procedure:
as §1, §2

Series [3] concerns the target T3, catalytic domain of MMP-13 (Homo sapiens, UniProt P45452).
T3 construct: The catalytic domains of MMP-2, MMP-8 and MMP-13 were purchased from Enzo Life Sciences; purchased Enzo Life Sciences (Lörrach, Germany)
The experiment in a line: MMP-13 enzyme inhibition assay (fluorogenic substrate). In kind it is biochemical. The note with it: mean ± SEM of at least three independent measurements in triplicate. On the procedure:
as §1, §2

In the next series the test system is MMP-2. The arrangement: method as in PMID 23873724. The note with it: previous work, virtual screening hits; cited from earlier work.
The next series concerns MMP-8. Details: method as in PMID 23873724. The following applies: previous work, virtual screening hits; cited from earlier work.
For the next series, the system named is MMP-13. Details: method as in PMID 23873724. The following applies: previous work, virtual screening hits; cited from earlier work.

T1 sequence (P08253 110-446 limits assumed): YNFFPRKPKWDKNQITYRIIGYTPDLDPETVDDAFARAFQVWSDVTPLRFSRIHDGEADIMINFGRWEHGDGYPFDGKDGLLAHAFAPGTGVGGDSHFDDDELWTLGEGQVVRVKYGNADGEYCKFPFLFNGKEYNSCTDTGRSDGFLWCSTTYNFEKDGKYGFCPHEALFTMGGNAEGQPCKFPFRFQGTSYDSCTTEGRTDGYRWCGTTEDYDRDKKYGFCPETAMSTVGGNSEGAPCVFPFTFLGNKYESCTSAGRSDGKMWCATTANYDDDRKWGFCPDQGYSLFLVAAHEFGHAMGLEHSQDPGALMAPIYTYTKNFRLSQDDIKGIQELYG

Broadly, the melting point is the temperature of the solid-liquid transition. Compound `O=S(=O)(Nc1ccc2cnccc2c1)c1ccccc1` [Compound 2e] had a melting point of 228 to 230 °C.

Consider `O=C(NCc1ccccc1)Nc1cccnc1` [Compound 1q], for which the melting point is 154 to 156 °C. One may read the IC50 as the concentration that gives 50% inhibition. In the case of `O=C(NCc1ccccc1)Nc1ccc2[nH]ncc2c1` [Compound 1l], the IC50 in series [1] was 86 ± 2 µM; in series [2], over 100 µM; in series [3] it was 98 ± 2 µM.

On to `O=C(NCc1ccc(NS(=O)(=O)c2ccccc2)cc1)Nc1cccc2cnccc12` [Compound 5], for which the melting point is 117 to 119 °C. In addition, half-maximal inhibition in series [1] (IC50) was put at 54 ± 7 µM. 88 ± 5 µM corresponded to half-maximal inhibition in series [2] (IC50). In series [3], half-maximal inhibition (IC50) required 55 ± 7 µM. The compound `O=C(NCc1ccccc1)Nc1ccc2cn[nH]c2c1` [Compound 1m] yielded a melting point of 198 to 199 °C. On the same count and under the same terms, to `O=C(NCc1ccccc1)Nc1ccc2[nH]ccc2c1` [Compound 1j] belongs 197 to 198 °C; to `O=C(NCc1ccccc1)Nc1nccc2ccccc12` [Compound 1e], 164 to 165 °C. With `O=C(NCc1ccc(NC(=O)c2ccccc2)cc1)Nc1cccc2cnccc12` [Compound 7], the melting point was in the range of 200 to 202 °C. 7.4 ± 0.8 µM corresponded to half-maximal inhibition in series [1] (IC50). This compound had an IC50 in series [2] of 48.5 ± 1.6 µM. The compound also registered an IC50 in series [3] of 6.6 ± 0.4 µM. The compound `O=C(NCc1ccccc1)Nc1ccc(O)cc1` [Compound 1s] displayed a melting point of 177 to 179 °C. Same read-out and setting: to `O=C(NCc1ccccc1)Nc1ccc2cc[nH]c2c1` [Compound 1k] belongs 211 to 213 °C. Still for that read-out and setting: to `O=C(NCc1ccccc1)c1cccc2cnccc12` [Compound 2c] belongs 182 to 183 °C; to `O=C(CCc1ccccc1)Nc1cccc2cnccc12` [Compound 2b], 133 to 135 °C; to `O=C(NCCc1ccccc1)c1cccc2cnccc12` [Compound 2d], 120 to 121 °C.

In turn, `O=C(NCc1ccccc1)Nc1cccc2ccncc12` [Compound 1i] registered a melting point of 206 to 208 °C. Further, the “MMP inhibition activity (in words)” value in series [1] (preliminary screening at 100 µM, isoform not given, MMP-2) was “inactive”. Regarding `O=C(NCc1ccco1)Nc1c[nH]c2cccnc2c1=O` [Hit 1], the concentration for half-maximal inhibition (IC50) with MMP-2 was 5 µM; with MMP-8, 75 µM; in the series on MMP-13, 36 µM. Consider `O=C(NCc1ccccc1)Nc1ccccn1` [Compound 1p], for which the melting point fell in the range of 148 to 150 °C.

As to `O=C(NCc1ccccc1)NN1CCCC1` [Compound 1z], the melting point was 124 to 126 °C. Consider `O=C(NCc1ccccc1)Nc1cccc2ncccc12` [Compound 1c], for which the melting point was 251 °C (dec.). Also, in series [1], half-maximal inhibition (IC50) required 55 ± 1 µM. Besides, the IC50 in series [2] is over 100 µM. This compound gave an IC50 in series [3] of 58 ± 1 µM.

`O=C(NCc1ccccc1)Nc1cc2ccccc2cn1` [Compound 1f]: the melting point fell in the range of 168 to 170 °C. Same read-out and setting: to `COc1cccc(CNC(=O)NCc2ccccc2)c1OC` [Compound 1t] belongs 149 °C; to `CC(NC(=O)NCc1ccccc1)c1ccccc1` (stereo not drawn) [Compound 1w], 116 to 118 °C.

`O=C(NCc1ccccc1)Nc1cccc2ccccc12` [Compound 1n]: the melting point was 196 to 197 °C. In turn, `COc1ccc(CNC(=O)NCc2ccccc2)cc1OC` [Compound 1u] registered a melting point of 127 °C. Take `O=C(NCc1ccccc1)Nc1cccc2cnccc12` [Compound 1h]: the melting point fell in the range of 248 to 249 °C. Also, in series [1], the concentration for half-maximal inhibition (IC50) amounted to 15 ± 4 µM. The compound further returned an IC50 in series [2] of over 100 µM. The same compound displayed an IC50 in series [3] of 14 ± 4 µM. The compound `O=C(NCc1ccccc1)Nc1ccc2ccccc2c1` [Compound 1o] came in with a melting point of 208 to 210 °C. On the same count and under the same terms, under `O=C(NCc1ccccc1)Nc1ccnc2ccccc12` [Compound 1b] stands 167 to 169 °C. On to `O=C(NCc1ccco1)Nc1c[nH]c2ccc(F)cc2c1=O` [Hit 2], for which the IC50 in the series with MMP-2 was 15 µM; in the series on MMP-8, 105 µM; with MMP-13, 5 µM. The compound `O=C(NCc1ccccc1)Nc1cncc2ccccc12` [Compound 1g] had a melting point of 235 to 237 °C. This compound also came in with an IC50 in series [1] of 74 ± 3 µM. This compound gave an IC50 in series [2] of over 100 µM. The compound further registered an IC50 in series [3] of 73 ± 11 µM. In turn, `O=C(Cc1ccccc1)Nc1cccc2cnccc12` [Compound 2a] registered a melting point of 186 to 188 °C.
